In the supplement of paper PMC12463676, “Small-molecule dissolution of stress granules by redox modulation benefits ALS models” (Nature Chemical Biology, 2025):

Legend:
[1] = compound: NC(=O)CCCCC1CCSS1 [lipoamide]; test: thermal stability z-score vs DMSO; higher = more thermally stabilized by treatment; details: HeLa, lipoamide concentration 100 µM
Description: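 Cellular thermal proteome profiling in HeLa cells. Cells were treated with 100 µM lipoamide for 1 h, with or without 1 mM arsenate for a further 1 h, then heated to ten temperatures (37-66.3 °C), and soluble protein was quantified by TMT mass spectrometry relative to 0.1% DMSO controls. The thermal stability score (sum of log2 fold changes minus the abundance score) was transformed to a z-score; mean of n = 3 experiments.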

[2] = compound: O=[As]([O-])(O)O.[K+] [potassium arsenate]; test: as above; details: HeLa; arsenate concentration 1 mM
Description: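 Cellular thermal proteome profiling in HeLa cells treated with 1 mM arsenate for 1 h (DMSO pretreatment), heated to ten temperatures (37-66.3 °C). Soluble protein was quantified by TMT mass spectrometry relative to DMSO controls; the thermal stability score was transformed to a z-score; mean of n = 3 experiments.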

[3] = arsenate co-treatment: 1 mM arsenate 1 h
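Note: each temperature applied for 3 min, abundance score taken as mean log2 fold change at the two lowest temperatures, z-score obtained by mean subtraction and division by SD.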

Sequence of UniProt P19474 (P19474 whole entry): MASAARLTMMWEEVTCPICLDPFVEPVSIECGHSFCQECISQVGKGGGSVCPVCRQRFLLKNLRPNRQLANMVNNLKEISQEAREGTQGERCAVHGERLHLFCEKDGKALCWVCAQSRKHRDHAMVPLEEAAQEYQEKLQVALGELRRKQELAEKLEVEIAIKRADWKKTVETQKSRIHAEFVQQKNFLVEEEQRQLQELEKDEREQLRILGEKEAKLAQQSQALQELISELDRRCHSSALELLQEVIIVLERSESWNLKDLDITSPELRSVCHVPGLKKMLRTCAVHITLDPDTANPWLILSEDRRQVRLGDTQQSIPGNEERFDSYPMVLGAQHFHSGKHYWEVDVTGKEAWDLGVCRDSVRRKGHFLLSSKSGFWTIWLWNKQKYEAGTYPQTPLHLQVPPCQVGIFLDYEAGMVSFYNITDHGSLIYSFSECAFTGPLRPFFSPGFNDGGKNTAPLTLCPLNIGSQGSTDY
Sequence of UniProt Q8IVL5 (Q8IVL5 whole entry): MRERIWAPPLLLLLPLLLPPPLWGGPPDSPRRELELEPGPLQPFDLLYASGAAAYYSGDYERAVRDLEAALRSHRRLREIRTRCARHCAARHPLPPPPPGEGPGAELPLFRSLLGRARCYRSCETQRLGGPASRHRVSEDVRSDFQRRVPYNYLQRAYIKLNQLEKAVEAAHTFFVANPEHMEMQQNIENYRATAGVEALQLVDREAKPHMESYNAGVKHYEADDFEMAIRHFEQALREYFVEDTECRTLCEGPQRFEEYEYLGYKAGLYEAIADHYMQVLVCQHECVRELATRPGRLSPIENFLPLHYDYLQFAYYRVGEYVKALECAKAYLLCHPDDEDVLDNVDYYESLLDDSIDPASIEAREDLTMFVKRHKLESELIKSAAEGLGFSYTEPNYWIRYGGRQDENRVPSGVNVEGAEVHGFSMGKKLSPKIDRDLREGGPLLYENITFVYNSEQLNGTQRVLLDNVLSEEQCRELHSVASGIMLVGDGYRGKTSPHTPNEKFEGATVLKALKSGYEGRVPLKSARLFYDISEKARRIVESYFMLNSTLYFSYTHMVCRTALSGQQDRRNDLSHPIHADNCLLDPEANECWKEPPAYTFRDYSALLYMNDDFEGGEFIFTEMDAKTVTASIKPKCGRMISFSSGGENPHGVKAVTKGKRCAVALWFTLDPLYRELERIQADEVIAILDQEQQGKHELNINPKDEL
Sequence of UniProt O95396 (O95396 whole entry): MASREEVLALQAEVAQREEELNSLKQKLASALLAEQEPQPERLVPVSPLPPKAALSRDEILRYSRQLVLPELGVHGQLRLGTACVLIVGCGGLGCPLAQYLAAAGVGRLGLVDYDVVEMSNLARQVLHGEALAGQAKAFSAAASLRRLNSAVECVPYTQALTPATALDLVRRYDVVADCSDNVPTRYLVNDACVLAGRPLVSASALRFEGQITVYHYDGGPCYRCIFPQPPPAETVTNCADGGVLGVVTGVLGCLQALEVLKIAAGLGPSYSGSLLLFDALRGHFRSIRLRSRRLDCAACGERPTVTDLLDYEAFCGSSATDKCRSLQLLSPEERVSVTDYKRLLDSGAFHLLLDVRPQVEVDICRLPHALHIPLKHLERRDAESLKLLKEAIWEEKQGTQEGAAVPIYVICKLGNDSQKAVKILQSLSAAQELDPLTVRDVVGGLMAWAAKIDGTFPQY
Sequence of UniProt Q8NFA0 (Q8NFA0 whole entry): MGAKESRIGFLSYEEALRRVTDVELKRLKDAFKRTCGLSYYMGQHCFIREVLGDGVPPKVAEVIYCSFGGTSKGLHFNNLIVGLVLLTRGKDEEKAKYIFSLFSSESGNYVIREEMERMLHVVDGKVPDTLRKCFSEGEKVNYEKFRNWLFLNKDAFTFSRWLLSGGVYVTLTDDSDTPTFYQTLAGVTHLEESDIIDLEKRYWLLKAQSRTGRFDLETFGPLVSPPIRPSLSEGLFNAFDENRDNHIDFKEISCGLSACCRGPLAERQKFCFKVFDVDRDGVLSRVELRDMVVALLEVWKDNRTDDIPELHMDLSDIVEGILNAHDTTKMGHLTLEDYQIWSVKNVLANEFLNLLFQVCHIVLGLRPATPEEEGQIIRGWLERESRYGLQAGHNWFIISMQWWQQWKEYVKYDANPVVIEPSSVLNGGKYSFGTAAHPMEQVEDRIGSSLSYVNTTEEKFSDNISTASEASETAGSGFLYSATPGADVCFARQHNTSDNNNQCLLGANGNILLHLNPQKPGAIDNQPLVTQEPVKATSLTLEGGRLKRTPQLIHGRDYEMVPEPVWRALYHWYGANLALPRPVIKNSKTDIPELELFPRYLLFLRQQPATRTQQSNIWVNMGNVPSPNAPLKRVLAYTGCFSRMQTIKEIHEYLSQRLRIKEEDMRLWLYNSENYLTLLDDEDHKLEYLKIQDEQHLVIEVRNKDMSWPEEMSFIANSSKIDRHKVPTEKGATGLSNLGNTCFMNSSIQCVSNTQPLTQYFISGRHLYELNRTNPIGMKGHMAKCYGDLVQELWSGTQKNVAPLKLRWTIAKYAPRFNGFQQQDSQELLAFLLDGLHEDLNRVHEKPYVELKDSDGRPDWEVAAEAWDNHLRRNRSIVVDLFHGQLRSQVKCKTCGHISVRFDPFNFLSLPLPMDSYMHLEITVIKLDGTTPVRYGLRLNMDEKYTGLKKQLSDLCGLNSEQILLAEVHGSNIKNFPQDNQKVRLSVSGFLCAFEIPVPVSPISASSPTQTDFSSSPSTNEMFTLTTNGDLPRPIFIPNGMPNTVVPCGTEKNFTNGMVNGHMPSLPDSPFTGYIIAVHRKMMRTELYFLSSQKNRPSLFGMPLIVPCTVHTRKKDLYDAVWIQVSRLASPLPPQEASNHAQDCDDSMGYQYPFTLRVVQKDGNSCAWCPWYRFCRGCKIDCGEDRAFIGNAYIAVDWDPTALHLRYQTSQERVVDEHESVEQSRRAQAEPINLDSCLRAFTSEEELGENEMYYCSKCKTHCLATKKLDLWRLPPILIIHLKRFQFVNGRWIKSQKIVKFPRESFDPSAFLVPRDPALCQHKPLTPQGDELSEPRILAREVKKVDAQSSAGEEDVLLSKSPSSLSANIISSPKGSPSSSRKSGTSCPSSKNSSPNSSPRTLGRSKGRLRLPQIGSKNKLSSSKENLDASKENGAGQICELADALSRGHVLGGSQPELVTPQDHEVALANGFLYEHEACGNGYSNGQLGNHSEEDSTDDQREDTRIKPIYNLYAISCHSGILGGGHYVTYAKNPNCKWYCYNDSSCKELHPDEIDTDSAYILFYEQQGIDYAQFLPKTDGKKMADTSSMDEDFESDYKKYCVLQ
Sequence of UniProt Q6PML9 (Q6PML9 whole entry): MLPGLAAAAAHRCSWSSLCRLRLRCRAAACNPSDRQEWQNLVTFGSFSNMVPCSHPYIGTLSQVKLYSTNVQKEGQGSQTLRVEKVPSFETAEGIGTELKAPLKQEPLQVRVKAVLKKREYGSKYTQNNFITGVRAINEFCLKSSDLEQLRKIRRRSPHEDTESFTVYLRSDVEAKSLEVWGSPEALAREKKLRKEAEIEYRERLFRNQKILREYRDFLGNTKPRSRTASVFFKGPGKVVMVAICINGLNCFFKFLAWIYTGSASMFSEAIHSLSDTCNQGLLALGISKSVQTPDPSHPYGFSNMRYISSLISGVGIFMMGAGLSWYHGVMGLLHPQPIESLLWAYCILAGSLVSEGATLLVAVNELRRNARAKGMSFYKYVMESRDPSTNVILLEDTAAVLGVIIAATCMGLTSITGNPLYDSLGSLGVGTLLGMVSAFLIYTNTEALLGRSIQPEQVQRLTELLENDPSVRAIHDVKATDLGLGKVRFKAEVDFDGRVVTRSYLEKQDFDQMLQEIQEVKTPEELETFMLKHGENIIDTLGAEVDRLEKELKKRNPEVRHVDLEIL
Sequence of UniProt Q8NC56 (Q8NC56 whole entry): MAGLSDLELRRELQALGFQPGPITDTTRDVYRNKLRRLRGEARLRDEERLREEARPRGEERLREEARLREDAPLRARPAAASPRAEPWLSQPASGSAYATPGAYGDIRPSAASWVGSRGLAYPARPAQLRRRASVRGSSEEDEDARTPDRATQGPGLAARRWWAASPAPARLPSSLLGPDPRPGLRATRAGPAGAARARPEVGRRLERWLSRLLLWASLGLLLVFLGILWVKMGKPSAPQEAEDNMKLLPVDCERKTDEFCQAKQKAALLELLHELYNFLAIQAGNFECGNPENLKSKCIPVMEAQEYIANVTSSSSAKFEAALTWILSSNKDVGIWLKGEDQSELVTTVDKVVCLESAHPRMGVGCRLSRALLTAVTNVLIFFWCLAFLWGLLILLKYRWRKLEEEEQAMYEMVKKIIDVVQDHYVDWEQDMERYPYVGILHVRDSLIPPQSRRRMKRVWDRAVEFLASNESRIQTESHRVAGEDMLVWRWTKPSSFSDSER
Sequence of UniProt P52943 (P52943 whole entry): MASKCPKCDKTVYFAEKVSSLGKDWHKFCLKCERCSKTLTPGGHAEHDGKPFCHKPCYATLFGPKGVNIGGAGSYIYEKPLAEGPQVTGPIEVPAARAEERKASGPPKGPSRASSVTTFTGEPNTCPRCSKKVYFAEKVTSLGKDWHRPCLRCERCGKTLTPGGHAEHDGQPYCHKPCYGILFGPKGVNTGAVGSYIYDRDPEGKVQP
Sequence of UniProt Q9UNK0 (Q9UNK0 whole entry): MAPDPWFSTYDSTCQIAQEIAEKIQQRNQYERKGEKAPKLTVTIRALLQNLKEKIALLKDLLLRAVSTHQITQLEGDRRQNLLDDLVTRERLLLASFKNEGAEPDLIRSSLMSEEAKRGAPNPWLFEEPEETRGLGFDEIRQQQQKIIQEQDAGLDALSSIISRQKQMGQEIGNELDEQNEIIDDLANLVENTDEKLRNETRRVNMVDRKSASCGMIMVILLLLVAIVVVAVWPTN
Sequence of UniProt O75586 (O75586 whole entry): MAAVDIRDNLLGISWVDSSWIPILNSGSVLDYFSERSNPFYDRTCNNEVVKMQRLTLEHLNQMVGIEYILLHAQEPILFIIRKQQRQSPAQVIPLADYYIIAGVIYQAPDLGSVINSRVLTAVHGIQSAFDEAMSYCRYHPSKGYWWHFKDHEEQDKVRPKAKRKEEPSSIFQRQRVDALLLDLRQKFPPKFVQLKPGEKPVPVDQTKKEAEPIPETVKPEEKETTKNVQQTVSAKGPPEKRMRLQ

Target | thermal stability z-score [1, 3] | thermal stability z-score ([1]; arsenate co-treatment: none) | thermal stability z-score [2]
SERPINB6 (UniProt P35237) | -0.206 | -0.157 | -1.01
PPIL1 (UniProt Q9Y3C6) | -0.0684 | -0.42 | -0.489
CMC1 (UniProt Q7Z7K0) | 0.741 | -0.328 | 0.65
INADL (UniProt Q8NI35) | -0.13 | -0.0923 | -0.0383
HMOX1 (UniProt P09601) | -0.0402 | -0.011 | -0.107
C8ORF33 (UniProt Q9H7E9) | 0.833 | -0.384 | 1.19
RILP (UniProt Q96NA2) | -0.0778 | 0.284 | 0.0653
RPS3A (UniProt P61247) | 0.23 | 0.114 | -0.818
SQRDL (UniProt Q9Y6N5) | -0.541 | -1.81 | -1.36
RNF149 (UniProt Q8NC42) | -0.375 | -0.859 | -0.556
CRIP2 (UniProt P52943) | -0.0467 | 0.146 | -0.637
HELZ (UniProt P42694) | -0.153 | -0.0553 | -0.122
SLMAP (UniProt Q14BN4) | -0.467 | -0.173 | 1.45
PICALM (UniProt Q13492) | 0.107 | -0.16 | -0.0231
ZFC3H1 (UniProt O60293) | 0.164 | -0.0359 | -0.434
C17ORF80 (UniProt Q9BSJ5) | -1.48 | -1.08 | -0.529
ATP5B (UniProt P06576) | -0.424 | -0.332 | 0.0331
NMNAT1 (UniProt Q9HAN9) | 1.03 | 1.15 | 1.87
SPDL1 (UniProt Q96EA4) | 0.746 | 0.706 | 1.2
SLC30A9 (UniProt Q6PML9) | 1.14 | 1.13 | 1.17
MOCS3 (UniProt O95396) | 0.01 | -0.0171 | -0.0988
TUBB6 (UniProt Q9BUF5) | -0.348 | 0.0923 | 0.532
TOP2A (UniProt P11388) | -0.141 | 0.0459 | -0.293
TSN (UniProt Q15631) | 1.41 | 1.61 | -0.161

Target | thermal stability z-score [1, 3] | thermal stability z-score ([1]; arsenate co-treatment: none) | thermal stability z-score [2]
PRKD2 (UniProt Q9BZL6) | -0.0965 | -0.0785 | -0.232
LARP7 (UniProt Q4G0J3) | 0.34 | 0.152 | 0.0679
TRIM21 (UniProt P19474) | -0.677 | -0.149 | 0.307
FLII (UniProt Q13045) | -0.35 | 0.0176 | 0.68
P3H2 (UniProt Q8IVL5) | -4.71 | -4.05 | 1.11
NCLN (UniProt Q969V3) | -3.4 | -2.85 | 0.537
MED6 (UniProt O75586) | 0.171 | 0.0477 | 0.00858
SLC25A20 (UniProt O43772) | 2.62 | 0.0858 | -0.0934
FAAP100 (UniProt Q0VG06) | 0.0838 | -0.0268 | -0.167
PNKD (UniProt Q8N490) | 0.175 | 0.758 | 0.929
AKT2 (UniProt P31751) | 0.466 | -0.00865 | -0.0952
HSF1 (UniProt Q00613) | -0.332 | -0.199 | -0.185
TFG (UniProt Q92734) | 0.607 | 0.76 | 0.134
ARHGEF5 (UniProt Q12774) | -0.685 | 0.596 | 0.214
ARHGAP1 (UniProt Q07960) | -1.02 | -0.692 | -0.115
NDUFS5 (UniProt O43920) | -0.473 | -0.963 | 0.133
SDF2L1 (UniProt Q9HCN8) | -2.27 | -1.73 | 0.265
HMGA1 (UniProt P17096) | -0.361 | 0.993 | -0.692
MYO1E (UniProt Q12965) | 0.918 | 0.582 | -0.8
VPS37A (UniProt Q8NEZ2) | 0.0547 | 0.243 | 0.0736
PPM1L (UniProt Q5SGD2) | -0.022 | -0.095 | -0.192
SKIV2L (UniProt Q15477) | -0.147 | -0.384 | 0.2
ZNF24 (UniProt P17028) | 0.0764 | -0.217 | -0.114
CEP350 (UniProt Q5VT06) | -0.154 | -0.182 | -0.0541

Target | thermal stability z-score [1, 3] | thermal stability z-score ([1]; arsenate co-treatment: none) | thermal stability z-score [2]
NADK (UniProt O95544) | 0.88 | 0.314 | -0.183
TSC22D2 (UniProt O75157) | 1.54 | 0.0633 | 1.16
ARRB1 (UniProt P49407) | 0.197 | 0.543 | 0.262
CDK5RAP2 (UniProt Q96SN8) | -0.149 | -0.131 | -0.112
USP32 (UniProt Q8NFA0) | -0.102 | -0.19 | -0.0527
ZNF217 (UniProt O75362) | -0.058 | 0.343 | -0.589
MBTPS1 (UniProt Q14703) | -0.923 | -0.876 | -0.822
TOX4 (UniProt O94842) | -0.0663 | -0.0734 | -0.108
PHKA2 (UniProt P46019) | -0.174 | 0.096 | -0.0062
CEP76 (UniProt Q8TAP6) | -0.336 | 0.197 | -1.36
LANCL2 (UniProt Q9NS86) | -1.13 | -0.454 | -0.393
STX8 (UniProt Q9UNK0) | -0.198 | 0.507 | 0.248
TPM3 (UniProt P06753) | 0.676 | 0.821 | 0.131
STXBP1 (UniProt P61764) | -0.206 | 0.0929 | 0.156
LEMD2 (UniProt Q8NC56) | -1.14 | -1.41 | -0.503
FUK (UniProt Q8N0W3) | 0.775 | 0.461 | 0.0734
TXLNA (UniProt P40222) | 0.459 | 0.0728 | 2.4
KDSR (UniProt Q06136) | 0.0293 | 0.264 | 0.275
BPTF (UniProt Q12830) | 0.137 | 0.144 | -0.181
LCMT1 (UniProt Q9UIC8) | 0.437 | 0.614 | -0.0988
FYN (UniProt P06241) | 0.0671 | -0.0839 | -1.04
CCDC191 (UniProt Q8NCU4) | 0.286 | -0.0683 | -0.189
STAT6 (UniProt P42226) | 0.0546 | -0.269 | 0.472
